Where a name gives a salt, the structure may show the parent alone.
Key:
[1] = Excretion of radioactivity after single oral dose of 14C-Vicriviroc, rat; assay type: in vivo, Rat (Sprague Dawley); conditions: 6 mg/kg single oral, total 0-168 hr
Method: (§4) [drawing 410] was synthesized at Schering-Plough Research Institute (Kenilworth, N.J.) and had >97% radiochemical purity.
(§5) Sample Collection: Urine and feces over selected intervals and blood at selected time points were collected from healthy male volunteers, monkeys and rats through 336-hr, 432-hr and 168-hr post dose, respectively. Radioactivity: Total radioactivity was measured using liquid scintillation spectrometer (LSS). Sample Processing for Profiling and Characterization of Metabolites: Sample Pooling: For each species, plasma samples were pooled across subjects/animals by time point. All the other matrices were first pooled for a desired collection interval within each subject/animal and then across subjects/animals to obtain a composite sample containing >90% of the radioactivity excreted in each respective matrix.

[2] = Excretion of radioactivity after single oral dose of 14C-Vicriviroc, monkey; assay type: in vivo, Monkey (Cynomolgus macaque); conditions: 5 mg/kg single oral, total 0-432 hr
Method: as §4, §5

[3] = molecular target: T1, human CCR5 chemokine receptor (Homo sapiens, UniProt P51681); experiment: CCR5 membrane binding assay (inhibition of RANTES binding); conditions: 125I-RANTES, membranes from NIH 3T3 cells expressing human CCR5
T1 construct: expressed in transfected cells; host or cells: NIH 3T3 cells (murine), membranes
T1 sequence (P51681 whole entry): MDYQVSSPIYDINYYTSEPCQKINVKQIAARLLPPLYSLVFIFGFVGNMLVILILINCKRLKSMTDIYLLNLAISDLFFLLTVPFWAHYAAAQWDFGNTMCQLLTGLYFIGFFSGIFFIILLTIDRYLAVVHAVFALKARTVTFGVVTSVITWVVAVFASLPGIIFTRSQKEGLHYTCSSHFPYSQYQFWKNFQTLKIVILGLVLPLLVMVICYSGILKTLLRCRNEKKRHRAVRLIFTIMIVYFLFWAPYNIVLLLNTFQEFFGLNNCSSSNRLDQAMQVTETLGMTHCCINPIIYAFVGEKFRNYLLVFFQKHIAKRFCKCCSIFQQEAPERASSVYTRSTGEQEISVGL
Method: CCR5 Membrane Binding Assay:
A high throughput screen utilizing a CCR5 membrane binding assay identifies inhibitors of RANTES binding. This assay utilizes membranes prepared from NIH 3T3 cells expressing the human CCR5 chemokine receptor which have the ability to bind to RANTES, a natural ligand for the receptor. […] Compounds are serially diluted over a wide range of 0.001 ug/ml to 1 ug/ml and tested in triplicates. Reaction cocktails are harvested through glass fiber filters, and washed thoroughly.
In the table, “Ex. No.” stands for “Example Number” and “nM” stands for “nanomolar.”

[4] = Profiling of Vicriviroc and metabolites in plasma, urine and feces, monkey; assay type: in vivo, Monkey (Cynomolgus macaque)
Method: (§1) HPLC column was maintained at room temperature for all LC-MS and LC-MS^n experiments. The mobile phase, which consisted of 95% 10-mM ammonium acetate (pH 6.0) containing 5% acetonitrile (A) and 95% acetonitrile and 5% water (B), was maintained at a constant flow rate (1 mL/min). For all LC-MS experiments, the column effluent was split to divert 20-25% into TSQ Quantum (ThermoElectron, San Jose, Calif.) mass spectrometer and the balance into a Flow Scintillation Analyzer (FSA) analyzer.
(§2) All LC-MS and LC-MS/MS experiments were performed using a TSQ mass spectrometer (ThermoElectron, San Jose, Calif.) nominally operated under the conditions listed below:
(§3) Radiochromatograms from study samples were examined to locate radioactive peaks corresponding to metabolites. After correcting for the delay time (0.2-0.5 min), each radiolabelled peak was examined for possible molecular ions related to the drug and/or its putative metabolites.

[5] = Profiling of Vicriviroc and metabolites in plasma, urine and feces, rat; assay type: in vivo, Rat (Sprague Dawley)
Method: as §1, §2, §3

[6] = Profiling of Vicriviroc and metabolites in plasma, urine and feces, human; assay type: in vivo
Method: as §1, §2, §3

## C[C@H]1CN(C2(C)CCN(C(=O)C3(c4ccc(C#N)cc4)CC3)CC2)CCN1C(c1ccccc1)c1ccccc1 [Example 30E]
other
  melting point: 84 to 90 °C

## CCNC(=O)Nc1cc(C)c(C(=O)N2CCC(C)(N3CCN(C(c4ccccc4)c4ccccc4)[C@@H](C)C3)CC2)c(C)c1 [Example 30D]
other
  melting point: 177 to 189 °C

## Cc1ncnc(C)c1C(=O)N1CCC(C)(N2CCN([C@@H](Cc3ccccc3)c3ccc(C(F)(F)F)cc3)[C@@H](C)C2)CC1
other
  melting point: 187 to 196 °C

## COC[C@@H](c1ccc(C(F)(F)F)cc1)N1CCN(C2(C)CCN(C(=O)c3c(C)ncnc3C)CC2)C[C@@H]1C [^14C-Vicriviroc, 1-[(4,6-dimethyl-5-pyrimidinyl)carbonyl]-4-[4-[2-methoxy-1 (R)-[4-(trifluoromethyl)phenyl]ethyl]-3(S)-methyl-1-piperazinyl]-4-methylpiperidine]
[1]; rat female
  Excretion of radioactivity as % of dose, feces: 72.9 % of dose
  Excretion of radioactivity as % of dose, urine: 15.6 % of dose
[1]; rat male
  Excretion of radioactivity as % of dose, feces: 69.1 % of dose
  Excretion of radioactivity as % of dose, urine: 18.0 % of dose
[2]; monkey female
  Excretion of radioactivity as % of dose, feces: 56.4 % of dose
  Excretion of radioactivity as % of dose, urine: 25.8 % of dose
[2]; monkey male
  Excretion of radioactivity as % of dose, feces: 48.6 % of dose
  Excretion of radioactivity as % of dose, urine: 26.3 % of dose

## Cc1ccnc(C)c1C(=O)N1CCC(N2CCN(C(c3ccccc3)c3ccccc3)[C@@H](C)C2)CC1 [Example 3C]
[3]
  Ki: 9.97 nM

## CCC[C@@H](c1ccc(OC(F)(F)F)cc1)N1CCN(C2(C)CCN(C(=O)c3c(C)ncnc3C)CC2)C[C@@H]1C [Example 30A]
other
  melting point: 241 °C

## CCC[C@@H](c1ccc(OC(F)(F)F)cc1)N1CCN(C2(C)CCN(C(=O)c3c(C)cccc3C)CC2)C[C@@H]1C [Example 30]
other
  melting point: 237 °C

## Cc1cccc(C)c1C(=O)N1CCC(N2CCN([C@@H](C)c3ccccc3)[C@@H](C)C2)CC1 [Example 15]
other
  melting point: 195 °C

## Cc1ccnc(C)c1C(=O)N1CCC(N2CCN(C(c3ccccc3)c3ccccc3)[C@@H](C)C2)CC1 (as salt: hydrochloride) [Example 3C]
other
  melting point: 180 to 188 °C (dec.)

## CC(=O)c1ccc([C@H](C)N2CCN(C3(C)CCN(C(=O)c4c(C)cccc4C)CC3)C[C@@H]2C)cc1 [Example 22]
other
  melting point: 80 to 85 °C

## Cc1cccc(C)c1C(=O)N1CCC(N2CCN([C@@H](C)c3ccc(I)cc3)[C@@H](C)C2)CC1 [Example 11]
[3]
  Ki: 10.5 nM

## Cc1ncnc(C)c1C(=O)N1CCC(C)(N2CCN(C(COC3OC(C(=O)O)C(O)C(O)C3O)c3ccc(C(F)(F)F)cc3)C(C)C2)CC1 (centres unmarked) [Example M35, O-desmethyl-VIC-glucuronide]
[4]; monkey plasma
  circulating drug derived component in plasma: prominent circulating metabolite
[4]; monkey urine
  % of the dose in urine: 3%
[5]; rat plasma
  circulating drug derived component in plasma: only detected in trace quantities
[5]; rat urine
  % of the dose in urine: less than 1%
[6]; human plasma
  circulating drug derived component in plasma: prominent circulating metabolite
[6]; human urine
  % of the dose in urine: 11%

## Cc1ncnc(C)c1C(=O)N1CCC(C)(N2CCN(C(c3ccccc3)c3ccccc3)[C@@H](C)C2)CC1 [Example 30C]
other
  melting point: 175 to 178 °C

## Cc1cccc(C)c1C(=O)N1CCC(N2CCN([C@@H](C)c3ccc(Cc4ccc(Cl)cc4)cc3)[C@@H](C)C2)CC1 [Example 17]
other
  melting point: 170 °C (dec.)

## Cc1cccc(C)c1C(=O)N1CCC(N2CCN([C@@H](C)c3ccc(-c4ccccc4)cc3)[C@@H](C)C2)CC1 [Example 16]
other
  melting point: 190 °C
[3]
  Ki: 60 nM

## Cc1ncnc(C)c1C(=O)N1CCC(C)(N2CCN(C(c3ccc(C(F)(F)F)cc3)c3ccc(C(F)(F)F)cc3)[C@@H](C)C2)CC1 [Example 30F]
other
  melting point: 180 to 192 °C

## CCNC(=O)N(C)c1cc(C)c(C(=O)N2CCC(C)(N3CCN(C(c4ccccc4)c4ccccc4)[C@@H](C)C3)CC2)c(C)c1 [Example 30H]
other
  melting point: 178 to 188 °C

## Cc1cccc(C)c1C(=O)N1CCC(N2CCN([C@@H](C)c3ccc(Cl)cc3)[C@@H](C)C2)CC1 [Example 13]
other
  melting point: 180 °C (dec.)

## CC(=O)c1ccc([C@H](C)N2CCN(C3CCN(C(=O)c4c(N)cccc4Cl)CC3)C[C@@H]2C)cc1 [Example 18]
other
  melting point: 210 °C

## CCC[C@@H](c1ccc(OC(F)(F)F)cc1)N1CCN(C2(C)CCN(C(=O)c3c(C)cc(NC(=O)NCC)cc3C)CC2)C[C@@H]1C [Example 30B]
other
  melting point: 219 °C

## CC[C@@H](c1ccc(OC(F)(F)F)cc1)N1CCN(C2CCN(C(=O)c3c(C)ncnc3C)CC2)C[C@@H]1C [Example 6C]
other
  melting point: 225 °C
[3]
  Ki: 30 nM
